Test results: patent US20040053842A1, “Methods of treatment with CETP inhibitors and antihypertensive agents” (Pfizer Inc., priority 2002, published 2004)

Test: aqueous solubility
Format: physicochemical
Conditions: aqueous environments

- solubility: < 0.04 µg/mL
SMILES: CCOC(=O)N1c2ccc(C(F)(F)F)cc2[C@@H](N(Cc2cc(C(F)(F)F)cc(C(F)(F)F)c2)C(=O)OC)C[C@H]1CC [torceptrapib, [2R,4S]-4-[(3,5-bis-trifluoromethyl-benzyl)-methoxycarbonyl-amino]-2-ethyl-6-trifluoromethyl-3,4-dihydro-2H-quinoline-1-carboxylic acid ethyl ester]
